Results reported in US20260184707A1, “PHARMACEUTICAL COMPOUNDS FOR THE TREATMENT OF COMPLEMENT MEDIATED DISORDERS” (ALEXION PHARMACEUTICALS, INC., priority 2022, published 2026).

Target: T1, Human complement C1s enzyme (Homo sapiens, UniProt P09871)
T1 construct: purified from human serum, Complement Technology, Inc; purchased Complement Technology, Inc; host or cells: human serum (plasma-derived native protein)
T1 sequence (P09871 438-688 limits assumed): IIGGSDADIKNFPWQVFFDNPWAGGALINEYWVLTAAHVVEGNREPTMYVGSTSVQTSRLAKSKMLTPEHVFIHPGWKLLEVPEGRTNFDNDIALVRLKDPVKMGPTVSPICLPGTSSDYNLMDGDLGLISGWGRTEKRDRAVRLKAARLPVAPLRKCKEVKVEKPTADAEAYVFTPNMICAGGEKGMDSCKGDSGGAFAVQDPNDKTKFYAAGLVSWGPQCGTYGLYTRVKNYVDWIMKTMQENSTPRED
T1 sequence (P09871 16-437 partner limits assumed): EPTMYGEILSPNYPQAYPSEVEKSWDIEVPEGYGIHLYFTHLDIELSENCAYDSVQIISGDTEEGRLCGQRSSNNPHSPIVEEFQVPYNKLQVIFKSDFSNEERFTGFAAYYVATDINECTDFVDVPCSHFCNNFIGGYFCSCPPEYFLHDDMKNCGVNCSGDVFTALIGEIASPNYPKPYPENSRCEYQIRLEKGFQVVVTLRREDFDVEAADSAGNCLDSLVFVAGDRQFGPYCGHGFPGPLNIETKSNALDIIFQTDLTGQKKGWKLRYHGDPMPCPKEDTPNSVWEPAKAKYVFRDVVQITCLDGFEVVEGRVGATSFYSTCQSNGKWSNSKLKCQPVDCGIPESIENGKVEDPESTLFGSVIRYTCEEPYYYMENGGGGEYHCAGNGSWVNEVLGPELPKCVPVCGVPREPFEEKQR
Test: Human C1s enzyme assay
Format: biochemical
Conditions: human complement C1s enzyme 1.16 nM, substrate Z-L-Lys-SBzl, A405; read-out: IC50 (Stars)
Procedure, shortened: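 Thioesterase activity followed colorimetrically (DTNB, A405, 30-s reads) using 100 μM Z-L-Lys-SBzl substrate. Enzyme, human serum-derived C1s at 1.16 nM final, was incubated with test compound for 5 min, room temperature, pH 7.5 Tris buffer with 1 M NaCl. Rate-versus-concentration data fitted by nonlinear regression for IC50.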

Structure (SMILES)	IC50 [nM]
O=C(Cn1c(-c2ccccc2)ncc(NS(=O)(=O)c2ccccc2)c1=O)NCc1cc2cnccc2[nH]1 [Compound 395, N-((1H-pyrrolo[3,2-c]pyridin-2-yl)methyl)-2-(6-oxo-2-phen-yl-5-(phenylsulfonamido)-pyrimidin-1(6H)-yl)acetamide]	> 1000
C[C@@H](Nc1cnc(N2CCC(F)(F)C2)n(CC(=O)NCc2cc3cnccc3[nH]2)c1=O)c1ccc2oc3ccccc3c2c1 [Compound 401, (R)-N-((1H-pyrrolo[3,2-c]pyridin-2-yl)methyl)-2-(5-((1-(dibenzo[b,d]furan-2-yl)ethyl)-amino)-2-(3,3-difluoropyrroli-din-1-yl)-6-oxopyrimidin-1(6H)-yl)acetamide]	100 to 1000
C[C@@H](Nc1cnc(N2CCCC(C(F)(F)F)C2)n(CC(=O)NCc2cc3cnccc3[nH]2)c1=O)c1ccc2oc3ccccc3c2c1 (stereo partly drawn) [Compound 402, N-((1H-pyrrolo[3,2-c]pyridin-2-yl)methyl)-2-(5-(((R)-1-(dibenzo[b,d]furan-2-yl)ethyl)-amino)-6-oxo-2-(3-(trifluoro-methyl)piperidin-1-yl)pyrimi-din-1(6H)-yl)acetamide]	100 to 1000
Cc1ncc(N[C@H](C)c2ccc3oc4ccccc4c3c2)c(=O)n1C(C)C(=O)NCc1cc2cnccc2[nH]1 (stereo partly drawn) [Compound 404, N-((1H-pyrrolo[3,2-c]pyridin-2-yl)methyl)-2-(5-(((R)-1-(dibenzo[b,d]furan-2-yl)ethyl)-amino)-2-methyl-6-oxopyrimi-din-1(6H)-yl)propanamide]	> 1000
Cc1ncc(NC(=O)c2csc(-c3ccccc3)n2)c(=O)n1CC(=O)NCc1cc2cnccc2[nH]1 [Compound 406, N-(1-(2-(((1H-pyrrolo[3,2-c]pyridine-2-yl)methyl)amino)-2-oxoethyl)-2-methyl-6-oxo-1,6-dihydropyrimidin-5-yl)-2-phenylthiazole-4-carboxamide]	100 to 1000
C[C@@H](Nc1ncc(N2CCOCC2)n(CC(=O)NCc2cc3cnccc3[nH]2)c1=O)c1ccc2oc3ccccc3c2c1 [Compound 407, (R)—N-((1H-pyrrolo[3,2-c]pyridine-2-yl)methyl)-2-(3-((1-(dibenzo[b,d]furan-2-yl)ethyl)amino)-6-morpholino-2-oxopyrazin-1(2H)-yl)acetamide]	< 100
O=C(Cn1c(N2CCOCC2)ncc(NC(=O)c2cnc(-c3ccccc3)o2)c1=O)NCc1cc2cnccc2[nH]1 [Compound 408, N-(1-(2-(((1H-pyrrolo[3,2-c]pyridine-2-yl)methyl)amino)-2-oxoethyl)-2-morpholino-6-oxo-1,6-dihydropyrimidin-5-yl)-2-phenyloxazole-5-carboxamide]	< 100
O=C(Cn1c(N2CCOCC2)ncc(NC(=O)CCc2ccccc2)c1=O)NCc1cc2cnccc2[nH]1 [Compound 409, N-(1-(2-(((1H-pyrrolo[3,2-c]pyridin-2-yl)methyl)amino)-2-oxoethyl)-2-morpholino-6-oxo-1,6-dihydropyrimidin-5-yl)-3-phenylpropanamide]	< 100
O=C(Cn1c(N2CCOCC2)ncc(NC(=O)c2ccc(Oc3ccccc3)cc2)c1=O)NCc1cc2cnccc2[nH]1 [Compound 410, N-(1-(2-(((1H-pyrrolo[3,2-c]pyridin-2-yl)methyl)amino)-2-oxoethyl)-2-morpholino-6-oxo-1,6-dihydropyrimidin-5-yl)-4-phenoxybenzamide]	< 100
O=C(Cn1c(N2CCOCC2)ncc(NC(=O)c2csc(-c3ccccc3)n2)c1=O)NCc1cc2cnccc2[nH]1 [Compound 411, N-(1-(2-(((1H-pyrrolo[3,2-c]pyridin-2-yl)methyl)amino)-2-oxoethyl)-2-morpholino-6-oxo-1,6-dihydropyrimidin-5-yl)-2-phenylthiazole-4-carbox-amide]	< 100
O=C(Cn1c(N2CCOCC2)ncc(NCCCc2ccccc2)c1=O)NCc1cc2cnccc2[nH]1 [Compound 412, N-((1H-pyrrolo[3,2-c]pyridine-2-yl)methyl)-2-(2-morpholino-6-oxo-5-((3-phenylpropyl)amino)pyrimidin-1(6H)-yl)acetamide]	< 100
O=C(Cn1c(N2CCOCC2)ncc(NC(=O)c2coc(-c3ccccc3)n2)c1=O)NCc1cc2cnccc2[nH]1 [Compound 413, N-(1-(2-(((1H-pyrrolo[3,2-c]pyridin-2-yl)methyl)amino)-2-oxoethyl)-2-morpholino-6-oxo-1,6-dihydropyrimidin-5-yl)-2-phenyloxazole-4-carbox-amide]	< 100
Cc1ncc(NC(=O)c2coc(-c3ccccc3)n2)c(=O)n1CC(=O)NCc1cc2cnccc2[nH]1 [Compound 414, N-(1-(2-(((1H-pyrrolo[3,2-c]pyridine-2-yl)methyl)amino)-2-oxoethyl)-2-methyl-6-oxo-1,6-dihydropyrimidin-5-yl)-2-phenyloxazole-4-carboxamide]	< 100
C[C@@H](Nc1ncc(N2CCCCC2)n(CC(=O)NCc2cc3cnccc3[nH]2)c1=O)c1ccc2oc3ccccc3c2c1 [Compound 415, (R)-N-((1H-pyrrolo[3,2-c]pyridin-2-yl)methyl)-2-(3-((1-(dibenzo[b,d]furan-2-yl)ethyl)-amino)-2-oxo-6-(piperidin-1-yl)pyrazin-1(2H)-yl)acetamide]	< 100
C[C@@H](Nc1cnc(N2CCCCC2)n(CC(=O)NCc2cc3cnccc3[nH]2)c1=O)c1ccc(-c2ccccc2F)cc1 [Compound 416, (R)-N-((1H-pyrrolo[3,2-c]pyridin-2-yl)methyl)-2-(5-((1-(2′-fluoro-[1,1′-biphenyl]-4-yl)ethyl)amino)-6-oxo-2-(piperidin-1-yl)pyrimidin-1(6H)-yl)acetamide]	< 100
C[C@@H](Nc1ncc(N2CCOCC2)n(CC(=O)NCc2cc3cnccc3[nH]2)c1=O)c1ccc(-c2ccccc2F)cc1 [Compound 417, (R)-N-((1H-pyrrolo[3,2-c]pyridin-2-yl)methyl)-2-(3-((1-(2′-fluoro-[1,1′-biphenyl]-4-yl)ethyl)amino)-6-morpholino-2-oxopyrazin-1(2H)-yl)acet-amide]	< 100

More lines, now with the values ahead:

IC50 [nM]	Structure (SMILES)
< 100	C[C@@H](Nc1cnc(-c2ccccc2F)n(CC(=O)NCc2cc3cnccc3[nH]2)c1=O)c1cc2c(cc1F)oc1ccccc12 [Compound 396, (R)-N-((1H-pyrrolo[3,2-c]pyridin-2-yl)methyl)-2-(5-((1-(3-fluorodibenzo[b,d]furan-2-yl)ethyl)amino)-2-(2-fluoro-phenyl)-6-oxopyrimidin-1(6H)-yl)acetamide]
< 100	C[C@@H](Nc1cnc(-n2cccc2)n(CC(=O)NCc2cc3cnccc3[nH]2)c1=O)c1ccc2oc3ccccc3c2c1 [Compound 397, (R)-N-((1H-pyrrolo[3,2-c]pyridin-2-yl)methyl)-2-(5-((1-(dibenzo[b,d]furan-2-yl)ethyl)-amino)-6-oxo-2-(1H-pyrrol-1-yl)pyrimidin-1(6H)-yl)acet-amide]
< 100	C[C@@H](Nc1cnc(N2CCCC(F)C2)n(CC(=O)NCc2cc3cnccc3[nH]2)c1=O)c1ccc2oc3ccccc3c2c1 (stereo partly drawn) [Compound 398, N-((1H-pyrrolo[3,2-c]pyridin-2-yl)methyl)-2-(5-(((R)-1-(dibenzo[b,d]furan-2-yl)ethyl)-amino)-2-(3-fluoropiperidin-1-yl)-6-oxopyrimidin-1(6H)-yl)-acetamide]
< 100	C[C@@H](Nc1cnc(N2CCCC(F)(F)C2)n(CC(=O)NCc2cc3cnccc3[nH]2)c1=O)c1ccc2oc3ccccc3c2c1 [Compound 399, (R)-N-((1H-pyrrolo[3,2-c]pyridin-2-yl)methyl)-2-(5-((1-(dibenzo[b,d]furan-2-yl)ethyl)-amino)-2-(3,3-difluoropiperi-din-1-yl)-6-oxopyrimidin-1(6H)-yl)acetamide]
< 100	C[C@@H](Nc1cnc(N2CCCC2=O)n(CC(=O)NCc2cc3cnccc3[nH]2)c1=O)c1ccc2oc3ccccc3c2c1 [Compound 400, (R)-N-((1H-pyrrolo[3,2-c]pyridin-2-yl)methyl)-2-(5-((1-(dibenzo[b,d]furan-2-yl)ethyl)-amino)-6-oxo-2-(2-oxopyr-rolidin-1-yl)pyrimidin-1(6H)-yl)acetamide]
< 100	O=C(Cn1c(-c2ccccc2F)ncc(NC2(c3ccc4oc5ccccc5c4c3)CC2)c1=O)NCc1cc2cnccc2[nH]1 [Compound 403, N-((1H-pyrrolo[3,2-c]pyridine-2-yl)methyl)-2-(5-((1-(dibenzo[b,d]furan-2-yl)cyclopropyl)amino)-2-(2-fluorophenyl)-6-oxopyrimidin-1(6H)-yl)acetamide]
< 100	O=C(Cn1cncc(NC(=O)c2cnc(-c3ccccc3)o2)c1=O)NCc1cc2cnccc2[nH]1 [Compound 405, N-(1-(2-(((1H-pyrrolo[3,2-c]pyridin-2-yl)methyl)amino)-2-oxoethyl)-6-oxo-1,6-dihydro-pyrimidin-5-yl)-2-phenyl-oxazole-5-carboxamide]
